Results reported in patent publication US12595289B2, “Therapeutic agent for breast cancer comprising BIG3-PHB2 interaction-inhibiting peptide derived from PHB2” (TOKUSHIMA UNIVERSITY, priority 2018, dated 2026).
Where “and” joins values, the source holds several entries; their conditions need not be identical. Equal entries are not always repeated. Positions of bridges follow the written chain, without caps; N, C: chain ends. Non-standard residues stand in square brackets, D forms with d. Residues, ends and D or L forms follow the SMILES beside them. No end group written: not given here. 2Nal = N[C@@H](Cc1ccc2ccccc2c1)C(=O)O; Nle = CCCC[C@H](N)C(=O)O; PEG = not defined here

Assays:
[1] = test system: Human breast cancer cell line MCF-7; assay: Estrogen (E2)-dependent growth assay on MCF-7; format: cell-based; conditions: 24 hours; for suppression ratio of E2-dependent growth: MCF-7, 10 μM each peptide, 10 nM estrogen; for suppression ratio of estrogen-dependent growth: MCF-7, 10 nM estrogen, peptide concentration not given (FIG. 11B, 12B)
Method: (§1) Growth assay on MCF-7 was carried out by seeding cells into 48-well plates (2×10^4 cells/200 μL). First, on the next day after seeding, the medium was changed to phenol red-free DMEM/F12 (Thermo Fisher Scientific) supplemented with 10% FBS, 1% Antibiotic/Antimycotic solution, 0.1 mM NEAA, 1 mM sodium pyruvate, and 10 μg/mL insulin. 24 hours later, the cells were treated with 10 nM 17β-estradiol (estrogen, Sigma) alone or with 10 nM estrogen and a PHB2 sequence-derived peptide. Growth assay on MCF-10A was carried out by seeding cells into 48-well plates (2×10^4 cells/200 μL). 24 hours after seeding, PHB2 sequence-derived peptide was added. Growth assays were carried out using the Cell Counting Kit-8 (CCK-8) (Dojindo, Kumamoto, Japan). The data are shown by mean±standard deviation of three independent experiments.
PHB2 peptides 11-21aa and 76-88aa were cross-linked by three types of cross-linking methods (FIG. 10A: hexafluorobenzene cross-linking, decafluorobiphenyl cross-linking, and disulfide cross-linking) to prepare cross-linked PHB2 peptides (stapled PHB2 peptides) (FIG. 10B), and the suppressive effects of these peptides on estrogen-dependent growth were examined. In the experiment, breast cancer cells MCF-7 were seeded, 10 μM each PHB2 peptide and 10 nM estrogen were added after 48 hours, and the cell number was evaluated after another 24 hours by MTT assay.

[2] = test system: PHB2 (Ser39) phosphorylation; assay: Ser39 phosphorylation of PHB2 in MCF-7 by Western blotting; format: cell-based, Human; conditions: MCF-7, 10 μM each peptide, 10 nM estrogen, 24 hours (FIG. 2C)
Method: For immunoblot analyses, after performing SDS-PAGE, the membranes blotted with proteins were blocked with 4% BlockAce solution (Dainippon Pharmaceutical, Osaka, Japan) for 3 hours and then incubated to react for 12 hours with antibodies against BIG3 (1:1,000), PHB2 (1:1,000) (Abcam, Cambridge, UK) and phosphorylated PHB2 (Ser39, Scrum, Tokyo, Japan). After allowing interaction with HRP-labeled secondary antibodies (anti-rat IgG-HRP for BIG3, 1:5,000; and anti-rabbit IgG-HRP for PHB2 and phosphorylated PHB2, 1:1,000) (Santa Cruz Biotechnology, Dallas, TX, USA) for 1 hour, the blots were developed with the Enhanced Chemiluminescence (ECL) system (GE Healthcare, Buckinghamshire, UK) and scanned using the Image Reader LAS-3000 mini (Fujifilm, Tokyo, Japan).

[3] = test system: Normal mammary gland epithelial cell line MCF-10A; assay: Growth assay on normal mammary gland epithelial cells MCF-10A; format: cell-based
Method: as §1

[4] = test system: Human breast cancer cell line MCF-7; assay: Estrogen (E2)-dependent growth assay on MCF-7; format: cell-based; conditions: 10 nM estrogen
[5] = MCF-10A (FIG. 6B), 1 μM or 10 μM, up to 96 hours
[6] = MCF-10A, cyclic 11-21aa 4 μM, cyclic 76-88aa 2 μM (FIG. 7C)
[7] = MCF-7, 4 μM cyclic 11-21aa, 2 μM cyclic 76-88aa, up to 96 hours (FIG. 7B)
[8] = MCF-7, 10 μM peptide alone, after 96 hours

| Compound | suppression ratio of E2-dependent growth [1] | suppression ratio of estrogen-dependent growth [1] | also measured |
| --- | --- | --- | --- |
| No. 2: PHB2 sequence-derived peptide 42-50aa (TVEGGHRAI; not fully specified (C-terminus)) | 22% and 20% |  |  |
| SEQ ID NO: 119: cross-linked PHB2 peptide 76-88aa without polyarginine at the C terminus (CQYPIIYDIRARPRC-NH2; linker 1-15 via hexafluorobenzene) | about 70% |  |  |
| No. 6: PHB2 peptide 86-100aa (negative control) (RPRKISSPTGSKDLQ; not fully specified (C-terminus)) | about 10% |  | band intensity of Ser39 phosphorylation of PHB2 compared to ERAP treatment [2]: 10% |
| SEQ ID NO: 121: cross-linked PHB2 peptide 76-88aa without polyarginine at the C terminus (CQYPIIYDIRARPRC-NH2; disulfide 1-15) | about 70% |  |  |
| SEQ ID NO: 127: cyclic PHB2 peptide 76-88aa, decafluorobiphenyl cross-linked (CQYPIIYDIRARPRCF[Nal]RRRR; linker 1-15 via decafluorobiphenyl; not fully specified (C-terminus)) |  | about 80% |  |
| SEQ ID NO: 134: PHB2 peptide 11-22aa in which glycines at positions 15 and 18 were substituted with D-leucines (RLPA[dL]PR[dL]MGTARRRRRRRR-NH2) |  | about 65% |  |
| SEQ ID NO: 120: cross-linked PHB2 peptide 76-88aa without polyarginine at the C terminus (CQYPIIYDIRARPRC-NH2; linker 1-15 via decafluorobiphenyl) | about 70% |  |  |
| SEQ ID NO: 117: cross-linked PHB2 peptide 11-21aa without polyarginine at the C terminus (CRLPAGPRG[Nle]GTC-NH2; disulfide 1-13) | about 70% |  |  |
| SEQ ID NO: 124: cyclic PHB2 peptide 11-21aa, decafluorobiphenyl cross-linked (CRLPAGPRG[Nle]GTCF[Nal]RRRR; linker 1-13 via decafluorobiphenyl; not fully specified (C-terminus)) |  | about 70% |  |
| SEQ ID NO: 126: cyclic PHB2 peptide 76-88aa, hexafluorobenzene cross-linked (CQYPIIYDIRARPRCF[Nal]RRRR; linker 1-15 via hexafluorobenzene; not fully specified (C-terminus)) |  | about 80% |  |
| SEQ ID NO: 116: cross-linked PHB2 peptide 11-21aa without polyarginine at the C terminus (CRLPAGPRG[Nle]GTC-NH2; linker 1-13 via decafluorobiphenyl) | about 70% |  |  |
| branched bound: 11-22aa and 76-90aa sequences synthesized with branching, linked via a PEG sequence (peptide 1 RLPAGPRGMGTA; peptide 2 QYPIIYDIRARPRKI; linker (positions not given here) via PEG; not fully specified (N-terminus); reading uncertain; also: branched construct, branch and link places not given here) | 57% |  | inhibition ratio of MCF-10A growth ([3]; MCF-10A, 10 μM each peptide, 24 hours): no effect on growth |
| SEQ ID NO: 133: PHB2 peptide 11-22aa in which glycines at positions 15 and 18 were substituted with D-alanines (RLPA[dA]PR[dA]MGTARRRRRRRR-NH2) |  | no suppressive effect |  |
| No. 3: PHB2 sequence-derived peptide 38-50aa (ESVFTVEGGHRAI; not fully specified (C-terminus)) | 23% and 17% |  |  |
| CC[C@H](C)[C@@H]1NC(=O)[C@H](CC(=O)O)NC(=O)[C@H](Cc2ccc(O)cc2)NC(=O)[C@H]([C@@H](C)CC)NC(=O)[C@H]([C@@H](C)CC)NC(=O)[C@@H]2CCCN2C(=O)[C@H](Cc2ccc(O)cc2)NC(=O)[C@H](CCC(N)=O)NC(=O)[C@@H]2CSSC[C@H](NC(=O)[C@H](CCCNC(=N)N)NC(=O)[C@@H]3CCCN3C(=O)[C@H](CCCNC(=N)N)NC(=O)[C@H](C)NC(=O)[C@H](CCCNC(=N)N)NC1=O)C(=O)N[C@@H](Cc1ccccc1)C(=O)N[C@@H](Cc1ccc3ccccc3c1)C(=O)N[C@@H](CCCNC(=N)N)C(=O)N[C@@H](CCCNC(=N)N)C(=O)N[C@@H](CCCNC(=N)N)C(=O)N[C@@H](CCCNC(=N)N)C(=O)N2 [cyclic 76-88aa] (cyclo(CQYPIIYDIRARPRCF[2Nal]RRRR); disulfide 1-15) | enhanced suppression ratios compared to non-cyclic peptides |  | effect on growth of MCF-10A [3, 5]: no effect on the growth; effect on growth of MCF-10A [3, 6]: no effect on growth; suppression ratio of E2-dependent growth ([1]; listed as cyclic peptide 76-88aa): 58%; suppression ratio of E2-dependent growth [4, 7]: 59%; suppression ratio of E2-dependent growth [4, 8]: 72% |
| SEQ ID NO: 115: cross-linked PHB2 peptide 11-21aa without polyarginine at the C terminus (CRLPAGPRG[Nle]GTC-NH2; linker 1-13 via hexafluorobenzene) | about 70% |  |  |
| SEQ ID NO: 123: cyclic PHB2 peptide 11-21aa, hexafluorobenzene cross-linked (CRLPAGPRG[Nle]GTCF[Nal]RRRR; linker 1-13 via hexafluorobenzene; not fully specified (C-terminus)) |  | about 70% |  |
| No. 50: PHB2 sequence-derived peptide 75-89aa (FQYPIIYDIRARPRK; not fully specified (C-terminus)) | almost the same suppressive effect |  |  |
| CCCC[C@@H]1NC(=O)CNC(=O)[C@H](CCCNC(=N)N)NC(=O)[C@@H]2CCCN2C(=O)CNC(=O)[C@H](C)NC(=O)[C@@H]2CCCN2C(=O)[C@H](CC(C)C)NC(=O)[C@H](CCCNC(=N)N)NC(=O)[C@@H]2CSSC[C@H](NC(=O)[C@H]([C@@H](C)O)NC(=O)CNC1=O)C(=O)N[C@@H](Cc1ccccc1)C(=O)N[C@@H](Cc1ccc3ccccc3c1)C(=O)N[C@@H](CCCNC(=N)N)C(=O)N[C@@H](CCCNC(=N)N)C(=O)N[C@@H](CCCNC(=N)N)C(=O)N[C@@H](CCCNC(=N)N)C(=O)N2 [cyclic 11-21aa] (cyclo(CRLPAGPRG[Nle]GTCF[2Nal]RRRR); disulfide 1-13) | enhanced suppression ratios compared to non-cyclic peptides |  | effect on growth of MCF-10A [3, 5]: no effect on the growth; effect on growth of MCF-10A [3, 6]: no effect on growth; suppression ratio of E2-dependent growth ([1]; listed as cyclic peptide 11-21aa): 53%; suppression ratio of E2-dependent growth [4, 7]: 41%; suppression ratio of E2-dependent growth [4, 8]: 67% |
